Assay results reported in patent US9326513B2, “Fungicidal compositions” (Syngenta Participations AG, priority 2011, dated 2016).

Assays:
Type in all cases: in vivo
Settings in all cases: foliar, compared to untreated control leaf disks, read-out: disease control
[1] = system: Puccinia recondita f. sp. tritici; test: Puccinia recondita f. sp. tritici / wheat / leaf disc curative (brown rust)
Description: Puccinia recondita f. sp. tritici/Wheat/Leaf Disc Curative (Brown Rust) Wheat leaf segments cv. Kanzler are placed on agar in multiwell plates (24-well format). The leaf segments are inoculated with a spore suspension of the fungus. Plates were stored in darkness at 19° C. and 75% rh. The formulated test compound diluted in water was applied 1 day after inoculation.

[2] = system: Puccinia recondita f. sp. tritici; test: Puccinia recondita f. sp. tritici / wheat / leaf disc preventative (brown rust)
From the text: Puccinia recondita f. sp. tritici/Wheat/Leaf Disc Preventative (Brown Rust) Wheat leaf segments cv. Kanzler were placed on agar in multiwell plates (24-well format) and sprayed with the formulated test compound diluted in water. The leaf disks were inoculated with a spore suspension of the fungus 1 day after application.

[3] = system: Blumeria graminis f. sp. tritici (Erysiphe graminis f. sp. tritici); test: Blumeria graminis f. sp. tritici / wheat / leaf disc preventative (powdery mildew on wheat)
Description: Blumeria graminis f. sp. tritici (Erysiphe graminis f. sp. tritici)/Wheat/Leaf Disc Preventative (Powdery Mildew on Wheat)
Wheat leaf segments cv. Kanzler were placed on agar in a multiwell plate (24-well format) and sprayed with the formulated test compound diluted in water. The leaf disks were inoculated by shaking powdery mildew infected plants above the test plates 1 day after application. The inoculated leaf disks were incubated at 20° C. and 60% rh under a light regime of 24 h darkness followed by 12 h light/12 h darkness in a climate chamber and the activity of a compound was assessed as percent disease control compared to untreated when an appropriate level of disease damage appears on untreated check leaf segments (6-8 days after application).
The following compounds gave at 200 ppm give at least 50% disease control in this test when compared to untreated control leaf disks under the same conditions, which show extensive disease development: […]

Structure (SMILES)	pest or weed control at 200 ppm [1] [%]	pest or weed control at 200 ppm [2] [%]	pest or weed control at 200 ppm [3] [%]
Cc1nc(OC2CCCCC2C)ccc1/N=C/N(C)C(C)C (centres unmarked) [Q.342]	≥ 50	≥ 50	≥ 50
CCN(C)/C=N/c1cc(Br)c(OC(C)c2ccccc2C#Cc2ccccc2)nc1C (centres unmarked) [Q.313]	–	≥ 50	–
CCN(C)/C=N/c1cc(Br)c(OC2Cc3cc(Br)c(Br)cc3C2)nc1C [Q.030]	≥ 50	≥ 50	≥ 50
Cc1nc(OCCCC(C)C)c(Br)cc1/N=C/NC(C)(C)C [Q.009]	–	≥ 50	–
CCN(C)/C=N/c1cc(Br)c(OCc2cc(-c3ccccc3)no2)nc1C [Q.073]	≥ 50	≥ 50	≥ 50
CCN(C)/C=N/c1cc(Br)c(OC2C=C(C)CCC2)nc1C (centres unmarked) [Q.173]	–	≥ 50	–
CCN(C)/C=N/c1cc(Br)c(OCc2ccccc2C(C)C)nc1C [Q.306]	≥ 50	≥ 50	≥ 50
C#CC(C)N(C)/C=N/c1cc(Br)c(OC(C)c2cc(F)cc(F)c2)nc1C (centres unmarked) [Q.190]	–	≥ 50	–
CCN(C)/C=N/c1cc(C(C)C)c(OC2CCC(C(C)C)CC2)nc1C (centres unmarked) [Q.343]	–	≥ 50	≥ 50
CCN(C)/C=N/c1ccc(OC2CCCCC2C)nc1C (centres unmarked) [Q.341]	≥ 50	≥ 50	≥ 50
CCN(C)/C=N/c1cc(Br)c(OC2CCc3c(OC)cccc32)nc1C (centres unmarked) [Q.050]	≥ 50	≥ 50	≥ 50
CCN(C)/C=N/c1cc(Br)c(OCc2snc(-c3ccccc3)c2C#N)nc1C [Q.210]	–	≥ 50	–
CCCc1ccccc1C(C)Oc1nc(C)c(/N=C/N(C)CC)cc1Br (centres unmarked) [Q.287]	≥ 50	≥ 50	≥ 50
CCN(C)/C=N/c1cc(Br)c(OCc2ccc(Cl)c(Cl)c2)nc1C [Q.064]	≥ 50	≥ 50	≥ 50
CCN(C)/C=N/c1cc(Br)c(OC(C)C[Si](C)(C)C)nc1C (centres unmarked) [Q.272]	–	≥ 50	≥ 50
CCN(C)/C=N/c1cc(Br)c(OC(C)c2ccccc2C#N)nc1C (centres unmarked) [Q.305]	≥ 50	≥ 50	≥ 50
CCC(Oc1nc(C)c(/N=C/N(C)CC)cc1Br)c1cc(F)cc(F)c1 (centres unmarked) [Q.327]	≥ 50	≥ 50	≥ 50
C=CCN(C)/C=N/c1cc(Br)c(OC(C)c2cc(F)cc(F)c2)nc1C (centres unmarked) [Q.192]	≥ 50	≥ 50	≥ 50
CCN(C)/C=N/c1cc(Br)c(OC2CCCc3ccccc32)nc1C (centres unmarked) [Q.138]	–	≥ 50	–
CCN(C)/C=N/c1ccc(OCc2cc(C)cc(C)c2)nc1C [Q.296]	≥ 50	≥ 50	≥ 50
Cc1cc(C)cc(CC(C)Oc2ccc(/N=C/N(C)C(C)C)c(C)n2)c1 (centres unmarked) [Q.362]	≥ 50	≥ 50	–

Structure (SMILES)	pest or weed control at 200 ppm [1] [%]	pest or weed control at 200 ppm [2] [%]	pest or weed control at 200 ppm [3] [%]
CCN(C)/C=N/c1cc(Br)c(OC2CC(C)CCC2C(C)C)nc1C (centres unmarked) [Q.083]	–	≥ 50	–
CCN(C)/C=N/c1cc(Br)c(OC2CCC3(CC2)NC(=O)NC3=O)nc1C (centres unmarked) [Q.072]	≥ 50	≥ 50	≥ 50
CCOC(=O)COc1nc(C)c(/N=C/N(C)CC)cc1C [Q.065]	≥ 50	≥ 50	≥ 50
CCN(C)/C=N/c1cc(Br)c(OC(C)(C)c2cc(-c3ccccc3)no2)nc1C [Q.077]	≥ 50	≥ 50	≥ 50
CCN(C)/C=N/c1cc(Br)c(OCc2ccc(Cl)cc2Cl)nc1C [Q.096]	≥ 50	≥ 50	–
CCC[Si](CCC)(CCC)c1cc(/N=C/N(C)CC)c(C)nc1OCc1ccccc1C [Q.259]	–	≥ 50	–
CCN(C)/C=N/c1cc(Br)c(OC2C(C)CCCC2C)nc1C (centres unmarked) [Q.094]	≥ 50	≥ 50	≥ 50
CCN(C)/C=N/c1cc(-c2ccccc2)c(OC(C)c2cc(F)cc(F)c2)nc1C (centres unmarked) [Q.263]	≥ 50	≥ 50	≥ 50
CCCOc1nc(C)c(/N=C/N(C)CC)cc1Br [Q.388]	≥ 50	≥ 50	≥ 50
CCN(C)/C=N/c1cc(Br)c(OC(CC(C)C)CC(C)C)nc1C [Q.234]	–	≥ 50	–
CCN(C)/C=N/c1cc(Br)c(OCc2cccc(N(C)C)c2)nc1C [Q.177]	≥ 50	≥ 50	≥ 50
CCN(C)/C=N/c1cc(Br)c(OC)nc1C [Q.387]	–	≥ 50	–
CCN(C)/C=N/c1cc(Br)c(OC(C)(C)c2ccccc2)nc1C [Q.279]	≥ 50	≥ 50	–
CCCC(CCC)Oc1nc(C)c(/N=C/N(C)CC)cc1Br [Q.150]	–	≥ 50	–
CCN(/C=N/c1cc(Br)c(OC(C)c2cc(F)cc(F)c2)nc1C)CC (centres unmarked) [Q.187]	–	≥ 50	≥ 50
CCN(C)/C=N/c1ccc(O[C@H]2CC[C@H](C(C)C)CC2)nc1C [Q.182]	≥ 50	≥ 50	–
CN/C=N/c1cc(Br)c(OCCCC(C)C)nc1C [Q.003]	–	≥ 50	–
CCN(C)/C=N/c1cc([Si](CC)(CC)CC)c(OCc2ccccc2C)nc1C [Q.258]	≥ 50	≥ 50	–
CCN(C)/C=N/c1cc(Br)c(OCc2cccc(N)c2)nc1C [Q.328]	–	≥ 50	–
CCN(C)/C=N/c1cc(Br)c(O)nc1C [Q.379]	–	≥ 50	–
CCN(C)/C=N/c1cc(-c2ccc(F)cc2)c(OC(C)c2cc(F)cc(F)c2)nc1C (centres unmarked) [Q.264]	–	≥ 50	–

Structure (SMILES)	pest or weed control at 200 ppm [1] [%]	pest or weed control at 200 ppm [2] [%]	pest or weed control at 200 ppm [3] [%]
CCN(C)/C=N/c1cc(Br)c(OC2CCNCC2)nc1C [Q.159]	≥ 50	≥ 50	–
CCN(C)/C=N/c1cc([Si](C)(C)C)c(OCc2ccccc2C)nc1C [Q.257]	≥ 50	≥ 50	–
CCN(C)/C=N/c1cc(Br)c(OCc2snc(-c3ccccc3)c2Br)nc1C [Q.108]	–	≥ 50	≥ 50
CCN(C)/C=N/c1cc(Br)c(OCCOCOC)nc1C [Q.061]	–	≥ 50	–
CCC(Oc1ccc(/N=C/N(C)C(C)C)c(C)n1)c1ccccc1 (centres unmarked) [Q.348]	≥ 50	≥ 50	–
CCN(C)/C=N/c1cc(Br)c(O[C@H]2CC[C@H](C(C)C)CC2)nc1C [Q.268]	–	≥ 50	–
CCN(C)/C=N/c1ccc(OCc2cc(OC)cc(OC)c2)nc1C [Q.372]	≥ 50	≥ 50	–
C#CCN(C)/C=N/c1cc(Br)c(OC(C)c2cc(F)cc(F)c2)nc1C (centres unmarked) [Q.189]	–	≥ 50	–
CCN(C)/C=N/c1cc(Br)c(OC(C)c2cccc(C#Cc3ccccc3)c2)nc1C (centres unmarked) [Q.312]	–	≥ 50	≥ 50
CCCc1ccc(-c2cc(/N=C/N(C)CC)c(C)nc2OC(C)c2cc(F)cc(F)c2)cc1 (centres unmarked) [Q.267]	–	≥ 50	≥ 50
CCN(C)/C=N/c1cc(Br)c(OCCCC2CCCCC2)nc1C [Q.017]	–	≥ 50	≥ 50
Cc1nc(OCCCC(C)C)c(Br)cc1/N=C/NC(C)C [Q.008]	–	≥ 50	–
CCN(C)/C=N/c1cc(Br)c(OCc2snc(-c3ccc(F)cc3)c2C#N)nc1C [Q.157]	–	≥ 50	–
CCN(C)/C=N/c1cc(Br)c(OC(C)c2ccccc2CCc2ccccc2)nc1C (centres unmarked) [Q.314]	–	≥ 50	–
CCN(C)/C=N/c1cc(Br)c(OC2Cc3ccc(-c4ccccc4)cc3C2)nc1C (centres unmarked) [Q.142]	–	≥ 50	≥ 50
CCN(C)/C=N/c1cc(-c2cccnc2)c(OC(C)c2cc(F)cc(F)c2)nc1C (centres unmarked) [Q.266]	–	≥ 50	–
Cc1nc(OC(C)c2cc(F)cc(F)c2)c(Br)cc1/N=C/N1CC=CC1 (centres unmarked) [Q.194]	≥ 50	≥ 50	–
CC#Cc1cc(/N=C/N(C)CC)c(C)nc1OC1CCC(C(C)C)CC1 (centres unmarked) [Q.254]	≥ 50	≥ 50	–
CCN(C)/C=N/c1cc(Br)c(OCc2cc(-c3ccccc3)ns2)nc1C [Q.107]	–	≥ 50	–
CCN(C)/C=N/c1cc(Br)c(OCCO)nc1C [Q.056]	–	≥ 50	–
